Earlier results in patent US12059506B2, “Coated implantable device” (NOBIL BIO RICERCHE S.R.L., priority 2017, dated 2024).

Conditions: aqueous phase

C[C@@H]1O[C@@H](Oc2c(-c3ccc(O)c(O)c3)oc3cc(O)cc(O)c3c2=O)[C@H](O)[C@H](O)[C@H]1O [quercitrin]
solubility in water: insoluble
